pIC50: −log10 of the molar value.
Target: JAK1 (Homo sapiens (Human), UniProt P23458)
Experiment: Analysis of JAK1 activity inhibition ability (ADP-Glo Kinase Assay)
Type: biochemical
Settings: JAK1 enzyme, ADP-Glo luminescence, ATP 250 uM, IRS-itide substrate, 30° C. 40 minutes; read-out: IC50
How it was run: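 ADP-Glo luminescence read-out of ADP production, with IC50 taken as the concentration halving JAK1 activity relative to control. Enzyme was incubated 40 min at 30 °C with compound, IRS-itide (40 ng/mL) and ATP (250 uM), concentrations as prepared in pH 7.5 Tris-HCl/MgCl2/BSA/DTT buffer.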

Chain of JAK1 (P23458 whole entry): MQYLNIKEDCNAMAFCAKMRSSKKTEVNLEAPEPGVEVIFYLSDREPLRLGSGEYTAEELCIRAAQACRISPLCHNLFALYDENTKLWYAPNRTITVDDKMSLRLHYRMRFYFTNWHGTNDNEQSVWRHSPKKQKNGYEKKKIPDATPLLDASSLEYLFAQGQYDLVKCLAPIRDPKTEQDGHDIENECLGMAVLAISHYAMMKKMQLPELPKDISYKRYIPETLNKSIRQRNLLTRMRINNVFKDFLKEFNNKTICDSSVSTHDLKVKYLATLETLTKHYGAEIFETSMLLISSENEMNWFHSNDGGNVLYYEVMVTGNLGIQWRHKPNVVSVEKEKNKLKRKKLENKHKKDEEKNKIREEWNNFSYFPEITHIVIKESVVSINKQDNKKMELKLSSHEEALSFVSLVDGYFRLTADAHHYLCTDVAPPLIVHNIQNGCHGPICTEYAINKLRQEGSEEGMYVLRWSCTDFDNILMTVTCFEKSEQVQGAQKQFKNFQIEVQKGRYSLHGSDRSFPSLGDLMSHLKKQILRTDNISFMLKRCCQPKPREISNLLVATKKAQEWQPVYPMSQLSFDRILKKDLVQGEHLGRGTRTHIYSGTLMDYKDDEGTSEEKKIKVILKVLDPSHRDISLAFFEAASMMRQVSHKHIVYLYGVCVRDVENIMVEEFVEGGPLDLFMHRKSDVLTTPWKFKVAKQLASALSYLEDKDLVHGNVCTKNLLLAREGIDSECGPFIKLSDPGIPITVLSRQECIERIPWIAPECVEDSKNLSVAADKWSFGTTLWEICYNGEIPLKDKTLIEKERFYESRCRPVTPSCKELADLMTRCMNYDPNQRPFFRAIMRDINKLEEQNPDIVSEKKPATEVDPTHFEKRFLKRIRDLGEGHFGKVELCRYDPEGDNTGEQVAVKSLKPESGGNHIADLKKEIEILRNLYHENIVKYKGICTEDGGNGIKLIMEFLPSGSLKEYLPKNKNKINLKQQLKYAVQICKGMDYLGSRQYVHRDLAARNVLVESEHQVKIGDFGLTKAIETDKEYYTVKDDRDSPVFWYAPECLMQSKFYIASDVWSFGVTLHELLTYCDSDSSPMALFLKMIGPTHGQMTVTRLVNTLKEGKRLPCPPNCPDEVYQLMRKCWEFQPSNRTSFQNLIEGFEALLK

Q: `CC1CN(S(=O)(=O)Nc2ccc(-c3nc(NC(=O)C4CC4)nc4[nH]ccc34)cc2)CC(C)O1` (stereo not shown) [Example 237, N-(4-(4-((2,6-dimethylmorpholine)-4-sulfonamido)phenyl)-7H-pyrrolo[2,3-d]pyrimidin-2-yl)cyclopropanecarboxamide] was tested. Which pIC50 did it give?
A: Its pIC50 is less than 6.70.

Q: With `O=C(Nc1nc(-c2ccc(NS(=O)(=O)N3CCOCC3)cc2)c2nc[nH]c2n1)C1CC1` [Example 238, N-(6-(4-(morpholine-4-sulfonamido)phenyl)-9H-purin-2-yl)cyclopropanecarboxamide] as the compound, how does the pIC50 read?
A: Its pIC50 is less than 6.70.

Q: `N#CCC(=O)Nc1ccc(-c2cc(NC(=O)C3CC3)nc3[nH]ccc23)cc1` [Example 239, N-(4-(4-(2-cyanoacetamido)phenyl)-1H-pyrrolo[2,3-b]pyridine-6-yl)cyclopropanecarboxamide] was tested. Which pIC50 did it give?
A: Its pIC50 is 6.70 to 7.70.

Q: How did the pIC50 turn out when `Cc1cc(NC(=O)CC#N)ccc1-c1cc(NC(=O)C2CC2)nc2[nH]ccc12` [Example 240, N-(4-(4-(2-cyanoacetamido)-2-methylphenyl)-1H-pyrrolo[2,3-b]pyridin-6-yl)cyclopropanecarboxamide] was run?
A: Its pIC50 is less than 6.70.

Q: How did the pIC50 turn out when `N#CC1(CC(=O)Nc2ccc(-c3cc(NC(=O)C4CC4)nc4[nH]ccc34)cc2)CC1` [Example 241, N-(4-(4-(2-(1-cyanocyclopropyl)acetamido)phenyl)-1H-pyrrolo[2,3-b]pyridin-6-yl)cyclopropanecarboxamide] was run?
A: The pIC50 was 6.70 to 7.70.

Q: How did the pIC50 turn out when `CCC(=O)NC1CC=C(c2cc(NC(=O)C3CC3)nc3[nH]ccc23)CC1` (stereo not shown) [Example 242, N-(4-(4-propionamidocyclohex-1-en-1-yl)-1H-pyrrolo[2,3-b]pyridin-6-yl)cyclopropanecarboxamide] was run?
A: The pIC50 was less than 6.70.

Q: `O=C(NC1CC=C(c2cc(NC(=O)C3CC3)nc3[nH]ccc23)CC1)c1ccccc1` (stereo not shown) [Example 243, N-(4-(6-(cyclopropanecarboxamido)-1H-pyrrolo[2,3-b]pyridin-4-yl)cyclohex-3-en-1-yl)benzamide] was tested. Which pIC50 did it give?
A: Its pIC50 is 6.70 to 7.70.

Q: How did the pIC50 turn out when `CC1CC1C(=O)NC1CC=C(c2cc(NC(=O)C3CC3)nc3[nH]ccc23)CC1` (stereo not shown) [Example 244, N-(4-(6-(cyclopropanecarboxamido)-1H-pyrrolo[2,3-b]pyridin-4-yl)cyclohex-3-en-1-yl)-2-methylcyclopropane-1-carboxamide] was run?
A: Its pIC50 is less than 6.70.

Q: `O=C(Nc1cc(C2=CCC(NC(=O)C3CCCC3)CC2)c2cc[nH]c2n1)C1CC1` (stereo not shown) [Example 245, N-(4-(6-(cyclopropanecarboxamido)-1H-pyrrolo[2,3-b]pyridin-4-yl)cyclohex-3-en-1-yl)cyclopentanecarboxamide] was tested. Which pIC50 did it give?
A: The pIC50 was 6.70 to 7.70.

Q: `O=C(Nc1cc(C2=CCC(NC(=O)C3CC3)CC2)c2cc[nH]c2n1)C1CC1` (stereo not shown) [Example 246, N-(4-(6-(cyclopropanecarboxamido)-1H-pyrrolo[2,3-b]pyridin-4-yl)cyclohex-3-en-1-yl)cyclopropanecarboxamide] was tested. Which pIC50 did it give?
A: Its pIC50 is 6.70 to 7.70.

Q: How did the pIC50 turn out when `N#CCC(=O)NC1CC=C(c2cc(NC(=O)C3CC3)nc3[nH]ccc23)CC1` (stereo not shown) [Example 247, N-(4-(4-(2-cyanoacetamido)cyclohex-1-en-1-yl)-1H-pyrrolo[2,3-b]pyridin-6-yl)cyclopropanecarboxamide] was run?
A: The pIC50 was 6.70 to 7.70.

Q: With `O=C(CCC(F)(F)F)NC1CC=C(c2cc(NC(=O)C3CC3)nc3[nH]ccc23)CC1` (stereo not shown) [Example 248, N-(4-(4-(4,4,4-trifluorobutanamido)cyclohex-1-en-1-yl)-1H-pyrrolo[2,3-b]pyridin-6-yl)cyclopropanecarboxamide] as the compound, how does the pIC50 read?
A: Its pIC50 is less than 6.70.

Q: `O=C(Nc1cc(C2=CCN(C(=O)C3CCS(=O)(=O)CC3)CC2)c2cc[nH]c2n1)C1CC1` [Example 249, N-(4-(1-(1,1-dioxidotetrahydro-2H-thiopyran-4-carbonyl)-1,2,3,6-tetrahydropyridin-4-yl)-1H-pyrrolo[2,3-b]pyridin-6-yl)cyclopropanecarboxamide] was tested. Which pIC50 did it give?
A: Its pIC50 is 6.70 to 7.70.

Q: `N#CCC(=O)N1CC=C(c2cc(NC(=O)C3CC3)nc3[nH]ccc23)CC1` [Example 250, N-(4-(1-(2-cyanoacetyl)-1,2,3,6-tetrahydropyridin-4-yl)-1H-pyrrolo[2,3-b]pyridin-6-yl)cyclopropanecarboxamide] was tested. Which pIC50 did it give?
A: Its pIC50 is greater than 7.70.

Q: How did the pIC50 turn out when `O=C(Nc1cc(C2=CCN(C(=O)CN3CCS(=O)(=O)CC3)CC2)c2cc[nH]c2n1)C1CC1` [Example 251, N-(4-(1-(2-(1,1-dioxidothiomorpholino)acetyl)-1,2,3,6-tetrahydropyridin-4-yl)-1H-pyrrolo[2,3-b]pyridin-6-yl)cyclopropanecarboxamide] was run?
A: Its pIC50 is 6.70 to 7.70.

Q: `N#CCCC(=O)N1CC=C(c2cc(NC(=O)C3CC3)nc3[nH]ccc23)CC1` [Example 252, N-(4-(1-(3-cyanopropanoyl)-1,2,3,6-tetrahydropyridin-4-yl)-1H-pyrrolo[2,3-b]pyridin-6-yl)cyclopropanecarboxamide] was tested. Which pIC50 did it give?
A: Its pIC50 is greater than 7.70.

Q: `O=C(Nc1cc(C2=CCN(C(=O)CC(F)(F)F)CC2)c2cc[nH]c2n1)C1CC1` [Example 253, N-(4-(1-(3,3,3-trifluoropropanoyl)-1,2,3,6-tetrahydropyridin-4-yl)-1H-pyrrolo[2,3-b]pyridin-6-yl)cyclopropanecarboxamide] was tested. Which pIC50 did it give?
A: The pIC50 was 6.70 to 7.70.

Q: How did the pIC50 turn out when `O=C(Nc1cc(C2=CCN(C(=O)CCC(F)(F)F)CC2)c2cc[nH]c2n1)C1CC1` [Example 254, N-(4-(1-(4,4,4-trifluorobutanoyl)-1,2,3,6-tetrahydropyridin-4-yl)-1H-pyrrolo[2,3-b]pyridin-6-yl)cyclopropanecarboxamide] was run?
A: Its pIC50 is 6.70 to 7.70.

Q: How did the pIC50 turn out when `N#CCCC(=O)N1C2C=C(c3cc(NC(=O)C4CC4)nc4[nH]ccc34)CC1CC2` (stereo not shown) [Example 255, N-(4-(8-(3-cyanopropanoyl)-8-azabicyclo[3.2.1]oct-2-en-3-yl)-1H-pyrrolo[2,3-b]pyridin-6-yl)cyclopropanecarboxamide] was run?
A: The pIC50 was greater than 7.70.

Q: With `O=C(Nc1cc(C2=CC3CCC(C2)N3C(=O)C2CC2)c2cc[nH]c2n1)C1CC1` (stereo not shown) [Example 256, N-(4-(8-(cyclopropanecarbonyl)-8-azabicyclo[3.2.1]oct-2-en-3-yl)-1H-pyrrolo[2,3-b]pyridin-6-yl)cyclopropanecarboxamide] as the compound, how does the pIC50 read?
A: Its pIC50 is greater than 7.70.

Q: How did the pIC50 turn out when `N#CCC(=O)N1C2C=C(c3cc(NC(=O)C4CC4)nc4[nH]ccc34)CC1CC2` (stereo not shown) [Example 257, N-(4-(8-(2-cyanoacetyl)-8-azabicyclo[3.2.1]oct-2-en-3-yl)-1H-pyrrolo[2,3-b]pyridin-6-yl)cyclopropanecarboxamide] was run?
A: The pIC50 was greater than 7.70.

Q: With `O=C(Nc1cc(C2=CC3CCC(C2)N3C(=O)CCC(F)(F)F)c2cc[nH]c2n1)C1CC1` (stereo not shown) [Example 258, N-(4-(8-(4,4,4-trifluorobutanoyl)-8-azabicyclo[3.2.1]oct-2-en-3-yl)-1H-pyrrolo[2,3-b]pyridin-6-yl)cyclopropanecarboxamide] as the compound, how does the pIC50 read?
A: The pIC50 was greater than 7.70.

Q: With `N#CC1(C(=O)N2CC=C(c3cc(NC(=O)C4CC4)nc4[nH]ccc34)CC2)CC1` [Example 259, N-(4-(1-(1-cyanocyclopropane-1-carbonyl)-1,2,3,6-tetrahydropyridin-4-yl)-1H-pyrrolo[2,3-b]pyridin-6-yl)cyclopropanecarboxamide] as the compound, how does the pIC50 read?
A: Its pIC50 is less than 6.70.

Q: With `O=C(Nc1cc(C2=CCN(C(=O)C3CC(F)(F)C3)CC2)c2cc[nH]c2n1)C1CC1` [Example 260, N-(4-(1-(3,3-difluorocyclobutane-1-carbonyl)-1,2,3,6-tetrahydropyridin-4-yl)-1H-pyrrolo[2,3-b]pyridin-6-yl)cyclopropanecarboxamide] as the compound, how does the pIC50 read?
A: Its pIC50 is 6.70 to 7.70.

Q: `O=C(Nc1cc(C2=CC3CCC(C2)N3C(=O)CC(F)(F)F)c2cc[nH]c2n1)C1CC1` (stereo not shown) [Example 261, N-(4-(8-(3,3,3-trifluoropropanoyl)-8-azabicyclo[3.2.1]oct-2-en-3-yl)-1H-pyrrolo[2,3-b]pyridin-6-yl)cyclopropanecarboxamide] was tested. Which pIC50 did it give?
A: The pIC50 was 6.70 to 7.70.

Source: patent US11524968B2, “Heterocyclic compound as a protein kinase inhibitor” (HK inno.N Corporation, priority 2017, dated 2022)
